{"source": "patent US9730939B2", "about": "“Heterocyclylamines as PI3K inhibitors” (Incyte Corporation, priority 2011, dated 2017)", "biological_target": "PI3Kδ (p110δ/p85α) (Homo sapiens (Human), UniProt O00329)", "sequence (O00329 whole entry)": "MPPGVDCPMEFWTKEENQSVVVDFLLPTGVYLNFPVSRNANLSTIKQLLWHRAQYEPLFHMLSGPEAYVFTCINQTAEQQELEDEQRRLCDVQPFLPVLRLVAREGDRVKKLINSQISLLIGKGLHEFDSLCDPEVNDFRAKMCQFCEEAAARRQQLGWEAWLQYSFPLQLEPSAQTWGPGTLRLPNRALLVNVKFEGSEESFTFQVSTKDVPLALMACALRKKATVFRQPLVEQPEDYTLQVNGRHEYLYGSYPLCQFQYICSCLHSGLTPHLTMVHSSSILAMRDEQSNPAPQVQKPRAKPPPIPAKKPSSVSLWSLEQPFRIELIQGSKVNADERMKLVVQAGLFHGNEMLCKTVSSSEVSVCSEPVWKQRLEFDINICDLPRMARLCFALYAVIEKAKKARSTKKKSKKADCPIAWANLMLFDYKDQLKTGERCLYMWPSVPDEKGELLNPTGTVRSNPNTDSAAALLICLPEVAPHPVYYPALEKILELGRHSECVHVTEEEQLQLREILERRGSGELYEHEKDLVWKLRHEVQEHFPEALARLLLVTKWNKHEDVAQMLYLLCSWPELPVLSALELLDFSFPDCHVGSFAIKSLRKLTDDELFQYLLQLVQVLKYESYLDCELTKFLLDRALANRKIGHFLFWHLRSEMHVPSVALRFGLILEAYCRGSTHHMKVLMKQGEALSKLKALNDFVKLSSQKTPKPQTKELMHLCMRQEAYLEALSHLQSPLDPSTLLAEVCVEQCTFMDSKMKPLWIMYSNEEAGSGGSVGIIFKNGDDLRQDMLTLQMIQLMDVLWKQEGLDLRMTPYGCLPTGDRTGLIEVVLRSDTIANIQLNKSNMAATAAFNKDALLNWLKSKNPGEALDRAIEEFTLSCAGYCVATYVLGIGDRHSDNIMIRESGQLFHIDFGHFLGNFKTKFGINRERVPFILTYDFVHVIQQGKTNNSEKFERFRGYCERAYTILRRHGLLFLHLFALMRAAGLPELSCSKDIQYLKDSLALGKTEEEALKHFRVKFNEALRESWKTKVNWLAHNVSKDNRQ", "sequence (P27986 whole entry partner)": "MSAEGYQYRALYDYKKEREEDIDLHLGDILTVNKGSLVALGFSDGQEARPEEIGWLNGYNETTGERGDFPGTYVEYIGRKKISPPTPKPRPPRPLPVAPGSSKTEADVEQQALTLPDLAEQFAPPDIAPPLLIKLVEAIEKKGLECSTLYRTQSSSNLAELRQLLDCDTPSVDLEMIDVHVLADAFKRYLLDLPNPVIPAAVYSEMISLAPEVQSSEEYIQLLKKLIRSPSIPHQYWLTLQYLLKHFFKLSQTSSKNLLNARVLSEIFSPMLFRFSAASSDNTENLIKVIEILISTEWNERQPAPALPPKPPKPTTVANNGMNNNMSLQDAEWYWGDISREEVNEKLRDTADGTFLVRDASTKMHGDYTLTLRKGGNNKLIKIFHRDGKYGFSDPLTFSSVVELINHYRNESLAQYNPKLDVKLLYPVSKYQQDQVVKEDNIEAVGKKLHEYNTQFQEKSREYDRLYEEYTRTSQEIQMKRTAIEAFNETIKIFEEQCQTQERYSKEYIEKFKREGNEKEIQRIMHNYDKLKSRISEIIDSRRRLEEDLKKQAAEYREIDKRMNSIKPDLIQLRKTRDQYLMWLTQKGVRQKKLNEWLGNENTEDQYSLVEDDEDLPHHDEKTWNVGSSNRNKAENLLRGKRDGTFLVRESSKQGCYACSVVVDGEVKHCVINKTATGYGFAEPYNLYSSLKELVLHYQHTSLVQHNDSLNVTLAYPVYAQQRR", "test": "Example A3 PI3Kδ scintillation proximity assay", "type": "biochemical", "conditions": "comparison of compounds 355-358; assay not given", "procedure": "PI3Kδ Scintillation Proximity Assay\n[γ-^33P]ATP (10 mCi/mL) was purchased from PerkinElmer (Waltham, Mass.). […] PI3Kδ (p110δ/p85α) was purchased from Millipore (Bedford, Mass.). ATP, MgCl2, DTT, EDTA, MOPS and CHAPS were purchased from SigmaAldrich (St. Louis, Mo.). Wheat Germ Agglutinin (WGA) YSi SPA Scintillation Beads was purchased from GE healthcare life sciences (Piscataway, N.J.).\nThe final concentration of DMSO in the assay was 0.5%. The PI3K assays were carried out at room temperature in 20 mM MOPS, pH 6.7, 10 mM MgCl2, 5 mM DTT and CHAPS 0.03%. Reactions were initiated by the addition of ATP, the final reaction mixture consisted of 20 μM PIP2, 20 μM ATP, 0.2 μCi [γ-^33P]", "data": [{"smiles": "CCOc1c(C(C)n2nc(C)c3c(N)ncnc32)cc(Cl)c(F)c1C1CNC(=O)O1", "note": "(single isomer, unassigned) [Example 357, 5-{3-[1-(4-amino-3-methyl-1H-pyrazolo[3,4-d]pyrimidin-1-yl)ethyl]-5-chloro-2-ethoxy-6-fluorophenyl}-1,3-oxazolidin-2-one]", "values": [{"measurement": "relative activity of the separated enantiomers (peaks 1-4)", "value": "most active enantiomer"}]}]}
